Measurements reported in PubChem BioAssay AID1845208 (Molecular Pharmacology Branch, DTP, NCI, 2023).

Tested on: NCI-H196 SCLC complex tumor spheroid viability
Assay: Anticancer human tumor NCI-H196 cell line growth inhibition;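 also: spheroids exposed to compounds for 7 days before readout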;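 as to viability, T/C: 100% = DMSO vehicle control wells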
Conditions: for IC50: curve of first compound; for viability, T/C: stronger effect = lower value
How it was run: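 Complex spheroids of malignant cells with endothelial cells and mesenchymal stem cells; agents alone or combined, from near clinical Cmax (or 10 microM if unknown) down in half-log steps, 0.25% DMSO final.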

[1] = second compound 1 µM, first compound 0.00949 µM
[2] = second compound 1 µM, first compound 0.03 µM
[3] = second compound 1 µM, first compound 0.0949 µM
[4] = second compound 1 µM, first compound 0.3 µM
[5] = second compound 1 µM, first compound 0.949 µM
[6] = second compound 1 µM, first compound 3 µM
[7] = second compound 3.16 µM, first compound 0.00949 µM
[8] = second compound 3.16 µM, first compound 0.03 µM
[9] = second compound 3.16 µM, first compound 0.0949 µM
[10] = second compound 3.16 µM, first compound 0.3 µM
[11] = second compound 3.16 µM, first compound 0.949 µM
[12] = second compound 3.16 µM, first compound 3 µM
[13] = second compound 10 µM, first compound 0.00949 µM
[14] = second compound 10 µM, first compound 0.03 µM
[15] = second compound 10 µM, first compound 0.0949 µM
[16] = second compound 10 µM, first compound 0.3 µM
[17] = second compound 10 µM, first compound 0.949 µM
[18] = second compound 10 µM, first compound 3 µM
[19] = second compound 31.6 µM, first compound 0.00949 µM
[20] = second compound 31.6 µM, first compound 0.03 µM
[21] = second compound 31.6 µM, first compound 0.0949 µM
[22] = second compound 31.6 µM, first compound 0.3 µM
[23] = second compound 31.6 µM, first compound 0.949 µM
[24] = second compound 31.6 µM, first compound 3 µM
[25] = second compound 100 µM, first compound 0.00949 µM
[26] = second compound 100 µM, first compound 0.03 µM
[27] = second compound 100 µM, first compound 0.0949 µM
[28] = second compound 100 µM, first compound 0.3 µM
[29] = second compound 100 µM, first compound 0.949 µM
[30] = second compound 100 µM, first compound 3 µM

Row | Compound | IC50 (second compound 1 µM) [µM] | IC50 (second compound 3.16 µM) [µM] | IC50 (second compound 10 µM) [µM] | IC50 (second compound 31.6 µM) [µM] | IC50 (second compound 100 µM) [µM] | viability, T/C [3] [%] | viability, T/C [4] [%] | viability, T/C [5] [%] | viability, T/C [6] [%] | viability, T/C [9] [%] | viability, T/C [10] [%] | viability, T/C [11] [%] | viability, T/C [12] [%] | viability, T/C [15] [%] | viability, T/C [16] [%] | viability, T/C [17] [%] | viability, T/C [18] [%] | viability, T/C [21] [%] | viability, T/C [22] [%] | viability, T/C [23] [%] | other results
1 | CNCc1ccc(-c2cc(-c3nc(-c4ccc(S(=O)(=O)C(C)C)cc4)cnc3N)on2)cc1 + Cn1nnc2c(C(N)=O)ncn2c1=O | > 3 | > 3 | > 3 | > 3 | > 3 | 106 | 99.5 | 84.1 | 85.2 | 104 | 105 | 88.1 | 88.2 | 105 | 99.5 | 95.3 | 84.4 | 106 | 105 | 91.4 | viability, T/C [1]: 100%; viability, T/C [2]: 92.1%; viability, T/C [7]: 98.7%; viability, T/C [8]: 97.4%; viability, T/C [13]: 100%; viability, T/C [14]: 96.3%; viability, T/C [19]: 102%; viability, T/C [20]: 113%; viability, T/C [24]: 82.9%; viability, T/C [25]: 107%; viability, T/C [26]: 109%; viability, T/C [27]: 112%; viability, T/C [28]: 99.6%; viability, T/C [29]: 88.3%; viability, T/C [30]: 84.3%
2 | Cc1sc2c(c1C)C(c1ccc(Cl)cc1)=NC(CC(=O)Nc1ccc(O)cc1)c1nnc(C)n1-2 (stereo not given) + Cn1nnc2c(C(N)=O)ncn2c1=O | 0.589 | 0.669 | 0.716 | 1.34 | 2.45 | 86.6 | 68.1 | 37.3 | 21.1 | 98.8 | 75.5 | 39 | 23.3 | 91.6 | 69.1 | 44 | 27.6 | 93.7 | 87.1 | 54.5 | viability, T/C [1]: 102%; viability, T/C [2]: 99.5%; viability, T/C [7]: 103%; viability, T/C [8]: 97.4%; viability, T/C [13]: 105%; viability, T/C [14]: 102%; viability, T/C [19]: 108%; viability, T/C [20]: 106%; viability, T/C [24]: 34.9%; viability, T/C [25]: 115%; viability, T/C [26]: 105%; viability, T/C [27]: 103%; viability, T/C [28]: 85%; viability, T/C [29]: 67%; viability, T/C [30]: 46.4%
3 | Cn1ncnc1[C@H]1c2n[nH]c(=O)c3cc(F)cc(c23)N[C@@H]1c1ccc(F)cc1 + Cn1nnc2c(C(N)=O)ncn2c1=O | > 3 | > 3 | > 3 | > 3 | > 3 | 99.5 | 95.5 | 86.6 | 94 | 104 | 103 | 88.9 | 99.5 | 104 | 90.9 | 110 | 89.2 | 94.8 | 93.2 | 100 | viability, T/C [1]: 103%; viability, T/C [2]: 92%; viability, T/C [7]: 105%; viability, T/C [8]: 105%; viability, T/C [13]: 104%; viability, T/C [14]: 100%; viability, T/C [19]: 104%; viability, T/C [20]: 91.6%; viability, T/C [24]: 91.3%; viability, T/C [25]: 102%; viability, T/C [26]: 94.5%; viability, T/C [27]: 94.5%; viability, T/C [28]: 94.8%; viability, T/C [29]: 99%; viability, T/C [30]: 89.5%
4 | O=C(c1cc(Cc2n[nH]c(=O)c3ccccc23)ccc1F)N1CCN(C(=O)C2CC2)CC1 + Cn1nnc2c(C(N)=O)ncn2c1=O | > 30 | > 30 | > 30 | > 30 | > 30 | 102 | 102 | 93.3 | 89.1 | 97.7 | 94.3 | 104 | 98.1 | 99.6 | 97.9 | 92.6 | 95.2 | 101 | 101 | 100 | viability, T/C (second compound 1 µM, first compound 9.49 µM): 86.1%; viability, T/C (second compound 1 µM, first compound 30 µM): 83.7%; viability, T/C (second compound 3.16 µM, first compound 9.49 µM): 85.5%; viability, T/C (second compound 3.16 µM, first compound 30 µM): 79.8%; viability, T/C (second compound 10 µM, first compound 9.49 µM): 92.4%; viability, T/C (second compound 10 µM, first compound 30 µM): 90.8%; viability, T/C [24]: 106%; viability, T/C (second compound 31.6 µM, first compound 9.49 µM): 98.7%; viability, T/C (second compound 31.6 µM, first compound 30 µM): 86.8%; viability, T/C [27]: 95.6%; viability, T/C [28]: 96.5%; viability, T/C [29]: 98.7%; viability, T/C [30]: 87.6%; viability, T/C (second compound 100 µM, first compound 9.49 µM): 86.7%; viability, T/C (second compound 100 µM, first compound 30 µM): 76.2%
